Experimental data as given in paper PMC8391104, “Molecular mechanism of Mad1 kinetochore targeting by phosphorylated Bub1” (EMBO Reports, 2021).
Numbering of substitutions follows the chain as printed. Where a SMILES comes first, the peptide text is derived from it. [ ]: non-standard residue; d: D form. pT = C[C@@H](OP(=O)(O)O)[C@H](N)C(=O)O; pS = N[C@@H](COP(=O)(O)O)C(=O)O

Experiments:
Mad1^CTD K614A = molecular target: T1, Mad1^CTD K614A (Homo sapiens, UniProt Q9Y6D9, K614A); test: ITC, Mad1^CTD K614A; format: binding; conditions: 20°C, pH 7.5, K614A, average of at least three experiments ± SD
T1 construct: human Mad1^CTD homodimer (residues 597–718); double Strep His6-tag with TEV site (N, cleaved yes); made in house; host or cells: E. coli Rosetta 2 (DE3)
T1 sequence (Q9Y6D9 597-718 K614A limits assumed): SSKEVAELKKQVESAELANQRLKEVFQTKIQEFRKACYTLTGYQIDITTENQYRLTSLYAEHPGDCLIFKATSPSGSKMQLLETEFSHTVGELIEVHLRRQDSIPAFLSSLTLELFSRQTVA
Description: (§1) The coding region of Mad1^597–719 was cloned by USER® (NEB) into a modified pRSFDuet‐1 vector (71341‐3, Sigma‐Aldrich) with an N‐terminal double Strep His6‐tag, followed by a tobacco etch virus (TEV) protease cleavage site (Demple & Linn, [1982]; Bitinaite et al, [1992]). Mad1 mutants were generated using the QuikChange™ Lightning Site‐Directed Mutagenesis Kit (Agilent), developed by Stratagene Inc. (La Jolla, CA) (Nøhr & Kristiansen, [2003]). Mad1 constructs were transformed into Rosetta™ 2 (DE3) Singles™ Competent Cells (71400, Novagen) for expression. Expression was induced with 0.5 mM IPTG and grown overnight at 18°C. Cells were lysed in 25 mM HEPES pH 8.1, 250 mM NaCl, 2 mM DTT, 5% glycerol, 2 mM EDTA supplemented with lysozyme, and Complete™ EDTA‐free protease inhibitors (Roche). Proteins were purified over a Strep‐Tactin Superflow Plus column (QIAGEN) and cleaved with TEV protease overnight at 4°C. The cleaved Mad1^CTD was then diluted to 50 mM NaCl, purified over an anion exchange (Resource Q, GE Healthcare) column, followed by size exclusion chromatography using a Superdex 75 Increase column (GE Healthcare). Mad1^CTD was concentrated to 35 mg/ml in a buffer of 20 mM HEPES pH 7.5, 100 mM NaCl and 1 mM TCEP.
(§2) Isothermal titration calorimetry (ITC) was performed using an Auto‐iTC200 instrument (Malvern Instruments, Malvern, UK) at 20°C. […]

[1] = molecular target: T2, human Mad1^CTD (WT) homodimer (Homo sapiens, UniProt Q9Y6D9); test: ITC of Bub1^CD1 peptides binding to wild-type Mad1^CTD; conditions: for binding to Mad1^CTD by ITC, in words: pH 7.5, Mad1^CTD WT
T2 construct: human Mad1^CTD homodimer (residues 597–718); double Strep His6-tag with TEV site (N, cleaved yes); made in house; host or cells: E. coli Rosetta 2 (DE3)
T2 sequence (Q9Y6D9 597-718): T1 sequence (Q9Y6D9 597-718 K614A limits assumed) with A18K
Description: as §1
Bub1^CD1 peptides were ordered from Designer Bioscience UK, at 95% purity. The full peptide sequence used in this study was (W)KVQP{pS}P{pT}VHTKEALGFIMNMFQAPTS. (W) = peptide with an additional N‐terminal tryptophan was used to confirm peptide concentration in stoichiometry studies.
Isothermal titration calorimetry (ITC) was performed using an Auto‐iTC200 instrument (Malvern Instruments, Malvern, UK) at 20°C. Mad1^CTD and Bub1^CD1 peptide mutants were dialysed into 20 mM HEPES pH 7.5, 100 mM NaCl, 1 mM TCEP. For each titration between 30–100 µM of Mad1 was pipetted into the calorimeter cell. The Bub1^CD1 peptides at 0.3–1.5 mM were titrated into the cell consisting of one 0.5 µl injection followed by 19 injections of 2 µl each. The changes in the heat released were integrated over the entire titration and fitted to a single‐site binding model using the MicroCal PEAQ‐ITC Analysis Software 1.0.0.1258 (Malvern Instruments). Titrations were performed in triplicate. Calculations for stoichiometry were based on the molar concentrations of dimeric Mad1^CTD.

[2] = molecular target: T3, Mad1^CTD QRRI** (Q627A, R650A, I643A, R630A) (Homo sapiens, UniProt Q9Y6D9, I643A/Q627A/R630A/R650A); test: ITC, Mad1^CTD QRRI** quadruple mutant; format: binding; conditions: 20°C, pH 7.5, QRRI**, average of at least three experiments ± SD
T3 construct: human Mad1^CTD homodimer (residues 597–718); double Strep His6-tag with TEV site (N, cleaved yes); made in house; host or cells: E. coli Rosetta 2 (DE3)
T3 sequence (Q9Y6D9 597-718 Q627A/R630A/I643A/R650A limits assumed): T1 sequence (Q9Y6D9 597-718 K614A limits assumed) with A18K, Q31A, R34A, I47A, R54A
Description: as §1, §2

Peptide solubility = format: physicochemical; conditions: Hepes buffer, aqueous buffer; 20 mM Hepes, pH 7.5, 100 mM NaCl, 1 mM TCEP, without DMSO; read-out: solubility
Experimental: Our ITC and sedimentation equilibrium experiments to measure the stoichiometry of the Mad1^CTD‐Bub1^CD1 interaction were performed with concentrations of Mad1 at 100 µM or lower, and titrating Bub1 until a twofold‐fourfold molar excess was obtained. However, our ^31P NMR experiments were conducted with around 0.25 to 0.5 mM of each, and still only one binding event was detected. […] DMSO interfered with ITC enthalpy changes and the NMR signal from DMSO obscured the protein peaks. In contrast, our Mad1^CTD‐Bub1^CD1 crystal structure was obtained through co‐crystallization of Mad1^CTD at a final concentration of 0.35 mM and Bub1^CD1 at 2.5 mM in 5% DMSO. The use of millimolar concentrations of peptide, and the presence of DMSO and isopropanol, required for Mad1^CTD‐Bub1^CD1 crystallization, may explain the association of a second peptide in the crystallized complex. […]
which are affected are already mapped out in Fig 5B, and this can be tracked across Bub1CD1 […]
We thank the reviewer for their positive and constructive comments.
1) On page 2, the first line of the third paragraph, Msp1 should be Mps1.
Response: Thank you, we have corrected this error.
2) Please provide a figure to show the omit map (2Fo−Fc map) for the BUB1 CD1 peptide.
Response: We have created a 2Fo-Fc omit map and included it in Fig EV2D and updated the figure legend accordingly. […]
2) p. 5, near bottom. The authors state that the singly phosphorylated Bub1 peptide (on Thr-461) is less soluble than the double phosphorylated peptide (also phosphorylated on Ser-459), which may explain previous reports that P-Ser-459 contributes to binding Mad1-CTD. It would be helpful if the authors could quantify this reduced solubility.
Response: We realise that our comment on the reduced solubility of the singly phosphorylated pT461 peptide is likely confusing, so we have removed this comment.
In terms of quantifying the reduced solubility, we observed an approximately 2-fold reduction of the solubility of the singly phosphorylated peptide. […]

Mad1^CTD K619A = molecular target: T4, Mad1^CTD K619A (Homo sapiens, UniProt Q9Y6D9, K619A); test: ITC, Mad1^CTD K619A; format: binding; conditions: 20°C, pH 7.5, K619A, average of at least three experiments ± SD
T4 construct: human Mad1^CTD homodimer (residues 597–718); double Strep His6-tag with TEV site (N, cleaved yes); made in house; host or cells: E. coli Rosetta 2 (DE3)
T4 sequence (Q9Y6D9 597-718 K619A limits assumed): T1 sequence (Q9Y6D9 597-718 K614A limits assumed) with A18K, K23A
Description: as §1, §2

Mad1^CTD Q627A = molecular target: T5, Mad1^CTD Q627A (Homo sapiens, UniProt Q9Y6D9, Q627A); test: ITC, Mad1^CTD Q627A; format: binding; conditions: 20°C, pH 7.5, Q627A, average of at least three experiments ± SD
T5 construct: human Mad1^CTD homodimer (residues 597–718); double Strep His6-tag with TEV site (N, cleaved yes); made in house; host or cells: E. coli Rosetta 2 (DE3)
T5 sequence (Q9Y6D9 597-718 Q627A limits assumed): T1 sequence (Q9Y6D9 597-718 K614A limits assumed) with A18K, Q31A
Description: as §1, §2

Mad1^CTD R630A = molecular target: T6, Mad1^CTD R630A (Homo sapiens, UniProt Q9Y6D9, R630A); test: ITC, Mad1^CTD R630A; format: binding; conditions: 20°C, pH 7.5, R630A, average of at least three experiments ± SD
T6 construct: human Mad1^CTD homodimer (residues 597–718); double Strep His6-tag with TEV site (N, cleaved yes); made in house; host or cells: E. coli Rosetta 2 (DE3)
T6 sequence (Q9Y6D9 597-718 R630A limits assumed): T1 sequence (Q9Y6D9 597-718 K614A limits assumed) with A18K, R34A
Description: as §1, §2

[3] = 1H 1D NMR of free Bub1^CD1 peptides (conformation); format: physicochemical; conditions: narrow dispersion of amide peaks, not bound to Mad1
Experimental: ^1H‐detected experiments were performed on 600 and 800 MHz Avance III spectrometers, both equipped with triple resonance TCI CryoProbes (Bruker). ^31P 1D NMR spectra were recorded on a 500 MHz Avance II spectrometer equipped with a broadband BBO cryoprobe (Bruker). All spectra were collected in 50 mM HEPES, pH 7.0, 100 mM NaCl, 2 mM TCEP, 0.02% NaN3 at 298K. Standard ^2H decoupled TROSY‐based triple resonance experiments were used for backbone resonance assignments: HNCO, HN(CA)CO, HNCA, HN(CO)CA, HNCACB, HN(CO)CACB and HN(COCA)NNH (Pervushin, [2020]). Backbone datasets were collected with 20–25% non‐uniform sampling and reconstructed using compressed sensing in MddNMR (Mayzel et al, [2014]). Topspin 3.6 (Bruker) was used for processing and NMRFAM‐Sparky 1.47 for data analysis (Lee et al, [2015]). Backbone assignments were obtained in Mars (Jung & Zweckstetter, [2004]). Secondary chemical shifts were calculated from the differences between observed Cα/Cβ chemical shifts and Cα/Cβ chemical shifts for random coils (Kjaergaard & Poulsen, [2011]). […]

15N-labelled Mad1^CTD = test: NMR titration (1H,15N HSQC) of Bub1^CD1 peptides into 15N-labelled Mad1^CTD; format: binding, human; conditions: 298K, 50 mM HEPES pH 7.0, 100 mM NaCl, 2 mM TCEP, 0.02% NaN3
Experimental: Isotopically labelled Mad1^CTD was expressed in M9 minimal media (6 g/l Na2HPO4, 3 g/l KH2PO4, 0.5 g/l NaCl) supplemented with 1.7 g/l yeast nitrogen base without NH4Cl and amino acids (Sigma Y1251). 1 g/l ^15NH4Cl and 4 g/l unlabelled glucose were supplemented for ^15N labelling. For the deuteration of nonlabile sidechain protons, cells were adapted for growth in 10, 44 and 78% deuterated media on agar plates before they were grown in large cultures supplemented with 1 g/l ^15NH4Cl and 4 g/l ^2H^13C‐glucose in 99% D2O (Sigma). Prior to NMR experiments, isotopically labelled Mad1^CTD and Bub1^CD1 peptide were dialysed into 25 mM HEPES, pH 7.0, 100 mM NaCl, 1 mM TCEP.
^1H‐detected experiments were performed on 600 and 800 MHz Avance III spectrometers, both equipped with triple resonance TCI CryoProbes (Bruker). ^31P 1D NMR spectra were recorded on a 500 MHz Avance II spectrometer equipped with a broadband BBO cryoprobe (Bruker). All spectra were collected in 50 mM HEPES, pH 7.0, 100 mM NaCl, 2 mM TCEP, 0.02% NaN3 at 298K. […] Secondary chemical shifts were calculated from the differences between observed Cα/Cβ chemical shifts and Cα/Cβ chemical shifts for random coils (Kjaergaard & Poulsen, [2011]). […]

[4] = design: method as in Zhang et al, 2017; conditions: ref Zhang et al, 2017; cited from earlier work

Row | Compound | Kd (Mad1^CTD K614A) | Kd ([1]; 20°C, 20 mM HEPES pH 7.5, 100 mM NaCl, 1 mM TCEP, 30–100 µM Mad1 in cell, 0.3–1.5 mM peptide, single-site model, average of at least three experiments ± SD) | KD at lowered peptide concentration ([1]; lowered concentration of doubly phosphorylated peptide (usual: 100 µM Mad1CTD, 1 mM peptide)) | Kd [2] | solubility (Peptide solubility) | Kd (Mad1^CTD K619A) | Kd (Mad1^CTD Q627A) | Kd (Mad1^CTD R630A) | conformation of free peptide, in words [3] | binding to Mad1^CTD by ITC, in words ([1]; 20°C) | binding to Mad1^CTD by ITC, in words ([1]; 20°C, listed as unphosphorylated Bub1^CD1 peptide) | binding by NMR titration, in words (15N-labelled Mad1^CTD) | conformation of unbound peptide by circular dichroism, in words [4]
1 | CC[C@H](C)[C@H](NC(=O)[C@H](Cc1ccccc1)NC(=O)CNC(=O)[C@H](CC(C)C)NC(=O)[C@H](C)NC(=O)[C@H](CCC(=O)O)NC(=O)[C@H](CCCCN)NC(=O)[C@@H](NC(=O)[C@H](Cc1c[nH]cn1)NC(=O)[C@@H](NC(=O)[C@@H](NC(=O)[C@@H]1CCCN1C(=O)[C@H](COP(=O)(O)O)NC(=O)[C@@H]1CCCN1C(=O)[C@H](CCC(N)=O)NC(=O)[C@@H](NC(=O)[C@@H](N)CCCCN)C(C)C)[C@@H](C)OP(=O)(O)O)C(C)C)[C@@H](C)O)C(=O)N[C@@H](CCSC)C(=O)N[C@@H](CC(N)=O)C(=O)N[C@@H](CCSC)C(=O)N[C@@H](Cc1ccccc1)C(=O)N[C@@H](CCC(N)=O)C(=O)N[C@@H](C)C(=O)N1CCC[C@H]1C(=O)N[C@H](C(=O)N[C@@H](CO)C(=O)O)[C@@H](C)O [pSpT CD1] (H-KVQP[pS]P[pT]VHTKEALGFIMNMFQAPTS-OH) | 2.4 ± 0.43 µM | 2.7 ± 1.2 µM | same KD | 24.9 ± 1.3 µM | ≥ 1500 µM | 10.1 ± 5.4 µM | 2.4 ± 0.4 µM | 10.1 ± 1.3 µM | – | – | – | – | –
2 | CD1: non‐phosphorylated Bub1^CD1 peptide (KVQPSPTVHTKEALGFIMNMFQAPTS; phosphoserine at 459, phosphothreonine at 461) | – | – | – | – | – | – | – | – | unstructured when not bound to Mad1 | no binding | complete absence of interactions | failed to reveal Bub1‐Mad1 interactions | unstructured but might have helical propensity that is increased with Thr461 phosphorylation
